# Results from patent publication US20140249084A1, “PTH-CONTAINING THERAPEUTIC/PROPHYLACTIC AGENT FOR OSTEOPOROSIS, CHARACTERIZED IN THAT PTH IS ADMINISTERED ONCE A WEEK IN A UNIT DOSE OF 100 TO 200 UNITS” (ASAHI KASEI PHARMA CORPORATION, priority 2009, published 2014).
# Experiments:
# [1] = in vivo
# [2] = in vivo; remark: listed apart in the source
# Experimental: The serum calcium was measured at the start, after 12 weeks, after 24 weeks, after 48 weeks, and after 72 weeks. Serum calcium standard value: 8.4 to 10.4 mg/dL. The standard concomitant drug (610 mg of calcium, 400 IU of vitamin D3, and 30 mg of magnesium) was taken once a day after dinner from the time of consent to the end of the trial.
# [3] = system: high-risk patients diagnosed with primary osteoporosis; test: CT geometry of the femur (multislice CT), Working Example 2; assay type: in vivo, human; settings: 200 units once a week
# Experimental: For the CT geometry, the proximal part of the femur was measured at the start and after 48 and 72 weeks using multislice CT scan.
# The effects of the test drug on three parts of the femur (neck of the femur, trochanter, and shaft of the femur) were studied using ordinary CT scans.
# [4] = system: high-risk patients diagnosed with primary osteoporosis; test: New vertebral fractures (incl. multiple), Working Example 2 (200 units once a week vs placebo, 72 weeks); assay type: in vivo, human; settings: for New vertebral fractures: Incidence (%) / New vertebral fractures: No. of subjects: 72 weeks; for No. with fractures: new vertebral fractures
# Text: The above patients also took two tablets of a calcium agent once a day after dinner. […] The preparation contained precipitated calcium carbonate, magnesium carbonate, cholecalciferol (vitamin D3), and the like as components and is marketed under the trade name New Calcichew (trademark) D3″ (sold by: Daiichi Sankyo Health Care, manufactured and sold by: Nitto Pharmaceutical Industries, Ltd.).
# The numbers of patients administered the test drug and control were 290 (also sometimes referred to as the test drug group in the working example) and 288 (also sometimes referred to as the control group in the working example), respectively. The total number administered was 578. However, the number in each group sometimes differs depending on the type of test and is expressed, for example, by (n=**) or the number evaluated, or the like.
# The incidence of bone fractures was checked by frontal and lateral x-rays of the fourth thoracic to the fourth lumbar spine taken at the start and every 24 weeks thereafter.
# Here, “multiple vertebral fractures” was defined as two or more new vertebral fractures. When the incidence of multiple vertebral fractures (number of cases) was compared in the test drug group (n=261) and control group (n=281) after 72 weeks of administration, it was 2.1% (6 cases) in the control group and 0.8% (2 cases) in the test drug group.
# [5] = system: high-risk patients diagnosed with primary osteoporosis; test: Femur (neck, proximal) bone density by DXA, Working Example 2; assay type: in vivo, human; settings: 200 units once a week; for Change in bone density (%): patients taking glucocorticoid
# Experimental: For the bone density of the femur, only the left side of the proximal part of the femur, rotated 20°, was measured at the start and every 24 weeks thereafter using dual-energy x-ray absorptiometry (DXA).
# [6] = No. of fractures: Five or more, 200 units once a week
# [7] = No. of fractures: Four, 200 units once a week
# [8] = No. of fractures: One, 200 units once a week
# [9] = No. of fractures: Three, 200 units once a week
# [10] = No. of fractures: Two, 200 units once a week
# [11] = history of Alfacalcidol, 200 units once a week
# [12] = history of Calcitriol, 200 units once a week
# [13] = history of Calcium L-aspartate, 200 units once a week
# [14] = history of Calcium lactate, 200 units once a week
# [15] = history of Elcatonin, 200 units once a week
# [16] = history of Menatetrenone, 200 units once a week
# [17] = history of Raloxifene hydrochloride, 200 units once a week
# [18] = patients taking glucocorticoid, 200 units once a week
# [19] = two or more new vertebral fractures, after 72 weeks, 200 units once a week
substance,measurement,setting,value
teriparatide acetate,"Side effects: No, No. of cases",[1],27
same,"Side effects: Yes, No. of cases",[1],22
same,"Corrected serum calcium, Max",[2],10.0 mg/dL
same,Manifestation of hypercalcemia or hypercalciuria,[2],No manifestation of hypercalcemia or hypercalciuria was found
same,Patients with serum calcium exceeding 11.0 mg/mL,[2],not even one patient
same,Safety in terms of the serum calcium across renal function groups,[2],equivalent safety in terms of the serum calcium in all groups
same,"Volume bone mineral density (cortical bone) [vBMD cortical], change from baseline after 48 weeks (%)",[3]; Neck of femur,−0.77%
same,"Volume bone mineral density (total) [vBMD total], change from baseline after 48 weeks (%)",[3]; Neck of femur,0.92%
same,"Volume bone mineral density (total) [vBMD total], change from baseline after 72 weeks (%)",[3]; Neck of femur,0.15%
same,"Volume bone mineral density (cortical bone) [vBMD cortical], change from baseline after 48 weeks (%)",[3]; Shaft of femur,0.59%
same,"Volume bone mineral density (cortical bone) [vBMD cortical], change from baseline after 72 weeks (%)",[3]; Shaft of femur,0.18%
same,"Maximum section modulus (SM (Z min)), change from baseline after 72 weeks (%)",[3]; Trochanter,3.20%
same,"Volume bone mineral density (cortical bone) [vBMD cortical], change from baseline after 48 weeks (%)",[3]; Trochanter,−0.49%
same,"Volume bone mineral density (total) [vBMD total], change from baseline after 72 weeks (%)",[3]; Trochanter,0.95%
same,Occurrence of new vertebral fractures after 48 weeks,"[4]; 48 to 72 weeks division, 200 units once a week",no new vertebral fractures occurred after 48 weeks
same,"New vertebral fractures, No. with fractures","[4]; FAS, No. evaluated 261",7
same,Difference between PTH200 group and P group after 72 W (%),"[4]; FAS, incidence of new vertebral fractures after 72 W",11.4%
same,New vertebral fractures: Incidence (%),[4]; [6],0.0%
same,New vertebral fractures: No. of subjects,[4]; [6],0
same,New vertebral fractures: Incidence (%),[4]; [7],0.0%
same,New vertebral fractures: No. of subjects,[4]; [7],0
same,New vertebral fractures: Incidence (%),[4]; [8],1.9%
same,New vertebral fractures: No. of subjects,[4]; [8],5
same,New vertebral fractures: Incidence (%),[4]; [9],0.0%
same,New vertebral fractures: No. of subjects,[4]; [9],0
same,New vertebral fractures: Incidence (%),[4]; [10],0.8%
same,New vertebral fractures: No. of subjects,[4]; [10],2
same,"New vertebral fractures, No. with fractures","[4]; Time after administration >24 W-≦48 W, No. evaluated 219",2
same,"New vertebral fractures, No. with fractures","[4]; Time after administration >48 W-≦72 W, No. evaluated 206",0
same,"New vertebral fractures, No. with fractures","[4]; Time after administration ≦24 W, No. evaluated 261",6
same,Incidence of new vertebral fractures (%),"[4]; creatinine clearance at start Abnormal (<80), After 24 W, 200 units once a week",2.8%
same,Incidence of new vertebral fractures (%),"[4]; creatinine clearance at start Abnormal (<80), After 48 W, 200 units once a week",3.4%
same,Incidence of new vertebral fractures (%),"[4]; creatinine clearance at start Abnormal (<80), After 72 W, 200 units once a week",3.4%
same,Incidence of new vertebral fractures (%),"[4]; creatinine clearance at start Normal (≧80), After 24 W, 200 units once a week",0.0%
same,Incidence of new vertebral fractures (%),"[4]; creatinine clearance at start Normal (≧80), After 48 W, 200 units once a week",0.0%
same,Incidence of new vertebral fractures (%),"[4]; creatinine clearance at start Normal (≧80), After 72 W, 200 units once a week",0.0%
same,New vertebral fractures: No,[4]; [11],62
same,New vertebral fractures: Yes,[4]; [11],1
same,New vertebral fractures: No,[4]; [12],7
same,New vertebral fractures: Yes,[4]; [12],1
same,New vertebral fractures: No,[4]; [13],28
same,New vertebral fractures: Yes,[4]; [13],1
same,New vertebral fractures: No,[4]; [14],8
same,New vertebral fractures: Yes,[4]; [14],0
same,New vertebral fractures: No,[4]; [15],35
same,New vertebral fractures: Yes,[4]; [15],2
same,New vertebral fractures: No,[4]; [16],6
same,New vertebral fractures: Yes,[4]; [16],0
same,New vertebral fractures: No,[4]; [17],20
same,New vertebral fractures: Yes,[4]; [17],0
same,No. with fractures,"[4]; Complication (diabetes): No, 200 units once a week",7
same,No. with fractures,"[4]; Complication (diabetes): Yes, 200 units once a week",0
same,No. with fractures,"[4]; Complication (hyperlipidemia): No, 200 units once a week",4
same,No. with fractures,"[4]; Complication (hyperlipidemia): Yes, 200 units once a week",3
same,No. with fractures,"[4]; Complication (hypertension): No, 200 units once a week",3
same,No. with fractures,"[4]; Complication (hypertension): Yes, 200 units once a week",4
same,No. with fractures,"[4]; Prior osteoporosis treatment (no), 200 units once a week",4
same,No. with fractures,"[4]; Prior osteoporosis treatment (yes), 200 units once a week",3
same,No. with fractures,"[4]; creatinine clearance at start Abnormal (<80), 200 units once a week",6
same,No. with fractures,"[4]; creatinine clearance at start Normal (≧80), 200 units once a week",0
same,"Existence of new vertebral fractures, Fracture: no",[4]; [18],29
same,"Existence of new vertebral fractures, Fracture: yes",[4]; [18],0
same,Incidence of multiple vertebral fractures,[4]; [19],0.8%
same,Multiple vertebral fractures (number of cases),[4]; [19],2 cases
same,Percentage change in bone density (%),"[5]; Neck of femur, 24 W, history of Alfacalcidol",1.64%
same,Percentage change in bone density (%),"[5]; Neck of femur, 24 W, history of Calcitriol",−0.60%
same,Percentage change in bone density (%),"[5]; Neck of femur, 24 W, history of Calcium L-aspartate",1.44%
same,Percentage change in bone density (%),"[5]; Neck of femur, 24 W, history of Calcium lactate",0.30%
same,Percentage change in bone density (%),"[5]; Neck of femur, 24 W, history of Elcatonin",1.62%
same,Percentage change in bone density (%),"[5]; Neck of femur, 24 W, history of Menatetrenone",0.72%
same,Percentage change in bone density (%),"[5]; Neck of femur, 24 W, history of Raloxifene hydrochloride",0.21%
same,Change in bone density (%),"[5]; Neck of femur, 24 W",2.53%
same,Percentage change in bone density (%),"[5]; Neck of femur, 48 W, history of Alfacalcidol",0.85%
same,Percentage change in bone density (%),"[5]; Neck of femur, 48 W, history of Calcitriol",−4.03%
same,Percentage change in bone density (%),"[5]; Neck of femur, 48 W, history of Calcium L-aspartate",1.88%
same,Percentage change in bone density (%),"[5]; Neck of femur, 48 W, history of Calcium lactate",−4.35%
same,Percentage change in bone density (%),"[5]; Neck of femur, 48 W, history of Elcatonin",0.72%
same,Percentage change in bone density (%),"[5]; Neck of femur, 48 W, history of Menatetrenone",−3.18%
same,Percentage change in bone density (%),"[5]; Neck of femur, 48 W, history of Raloxifene hydrochloride",1.03%
same,Change in bone density (%),"[5]; Neck of femur, 48 W",2.79%
same,Percentage change in bone density (%),"[5]; Neck of femur, 72 W, history of Alfacalcidol",2.19%
same,Percentage change in bone density (%),"[5]; Neck of femur, 72 W, history of Calcitriol",−3.53%
same,Percentage change in bone density (%),"[5]; Neck of femur, 72 W, history of Calcium L-aspartate",4.17%
same,Percentage change in bone density (%),"[5]; Neck of femur, 72 W, history of Calcium lactate",−2.53%
same,Percentage change in bone density (%),"[5]; Neck of femur, 72 W, history of Elcatonin",3.15%
same,Percentage change in bone density (%),"[5]; Neck of femur, 72 W, history of Menatetrenone",−0.78%
same,Percentage change in bone density (%),"[5]; Neck of femur, 72 W, history of Raloxifene hydrochloride",−0.51%
same,Change in bone density (%),"[5]; Neck of femur, 72 W",2.44%
same,Percentage change in bone density (%),"[5]; Proximal femur, 24 W, history of Alfacalcidol",2.77%
same,Percentage change in bone density (%),"[5]; Proximal femur, 24 W, history of Calcitriol",−1.40%
same,Percentage change in bone density (%),"[5]; Proximal femur, 24 W, history of Calcium L-aspartate",1.76%
same,Percentage change in bone density (%),"[5]; Proximal femur, 24 W, history of Calcium lactate",1.78%
same,Percentage change in bone density (%),"[5]; Proximal femur, 24 W, history of Elcatonin",3.86%
same,Percentage change in bone density (%),"[5]; Proximal femur, 24 W, history of Menatetrenone",0.60%
same,Percentage change in bone density (%),"[5]; Proximal femur, 24 W, history of Raloxifene hydrochloride",2.44%
same,Change in bone density (%),"[5]; Proximal femur, 24 W",2.46%
same,Percentage change in bone density (%),"[5]; Proximal femur, 48 W, history of Alfacalcidol",2.31%
same,Percentage change in bone density (%),"[5]; Proximal femur, 48 W, history of Calcitriol",−1.05%
same,Percentage change in bone density (%),"[5]; Proximal femur, 48 W, history of Calcium L-aspartate",2.28%
same,Percentage change in bone density (%),"[5]; Proximal femur, 48 W, history of Calcium lactate",−1.68%
same,Percentage change in bone density (%),"[5]; Proximal femur, 48 W, history of Elcatonin",3.44%
same,Percentage change in bone density (%),"[5]; Proximal femur, 48 W, history of Menatetrenone",−0.56%
same,Percentage change in bone density (%),"[5]; Proximal femur, 48 W, history of Raloxifene hydrochloride",2.26%
same,Change in bone density (%),"[5]; Proximal femur, 48 W",3.39%
same,Percentage change in bone density (%),"[5]; Proximal femur, 72 W, history of Alfacalcidol",2.31%
same,Percentage change in bone density (%),"[5]; Proximal femur, 72 W, history of Calcitriol",−0.04%
same,Percentage change in bone density (%),"[5]; Proximal femur, 72 W, history of Calcium L-aspartate",3.69%
same,Percentage change in bone density (%),"[5]; Proximal femur, 72 W, history of Calcium lactate",−3.20%
same,Percentage change in bone density (%),"[5]; Proximal femur, 72 W, history of Elcatonin",4.41%
same,Percentage change in bone density (%),"[5]; Proximal femur, 72 W, history of Menatetrenone",−1.40%
same,Percentage change in bone density (%),"[5]; Proximal femur, 72 W, history of Raloxifene hydrochloride",3.03%
same,Change in bone density (%),"[5]; Proximal femur, 72 W",3.06%
